Laboratory results as given in patent publication US4539410A, “N-Substituted-2-(1-imidazolyl)indoles” (priority 1983, dated 1985).

How the values were obtained:
[1] = target: T1, thromboxane synthetase from lysed human platelets (Homo sapiens, UniProt P24557); experiment: in vitro inhibition of thromboxane synthetase (14C-arachidonic acid, TxB2/PGF2 α+β ratio); type: biochemical; details: concentration at which ratio TxB2/PGF2 α+β is reduced to 50% of control; 30 minutes incubation
T1 construct: crude microsomal preparation of thromboxane synthetase from lysed human platelets; from tissue; host or cells: human platelets (lysed), crude microsomal preparation
T1 sequence (P24557 1-533): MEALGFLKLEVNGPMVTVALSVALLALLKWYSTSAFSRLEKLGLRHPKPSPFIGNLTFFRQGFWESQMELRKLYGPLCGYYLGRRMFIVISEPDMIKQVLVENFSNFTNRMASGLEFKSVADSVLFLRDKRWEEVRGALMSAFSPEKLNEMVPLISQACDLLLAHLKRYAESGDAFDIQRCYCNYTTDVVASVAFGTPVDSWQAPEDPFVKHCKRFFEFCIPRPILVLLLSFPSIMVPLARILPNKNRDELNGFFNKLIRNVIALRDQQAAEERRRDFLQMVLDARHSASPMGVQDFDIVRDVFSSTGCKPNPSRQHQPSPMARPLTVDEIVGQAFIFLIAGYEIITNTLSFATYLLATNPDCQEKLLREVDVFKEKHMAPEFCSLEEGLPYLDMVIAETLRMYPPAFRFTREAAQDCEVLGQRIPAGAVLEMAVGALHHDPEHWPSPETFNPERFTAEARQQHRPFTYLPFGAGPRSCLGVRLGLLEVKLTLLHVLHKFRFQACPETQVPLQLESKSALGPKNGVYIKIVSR
Procedure: Res. Comm. 74, 1432 (1977); the testing procedure is as follows:
^14 C-Arachidonic acid is incubated with an enzyme mixture preparation consisting of solubilized and partially purified prostaglandin cyclo-oxygenase from sheep seminal vesicles and a crude microsomal preparation of thromboxane synthetase from lysed human platelets. The test compound (dissolved in buffer, or if necessary, in a small amount of ethanol) is added to the incubation medium. At the end of the incubation period (30 minutes), Prostaglandin E2 (PGE2) is reduced to a mixture of Prostaglandin F2 α and F2 β (PGF2 α+β) by addition of sodium borohydride. The radioactive products and excess substrate are extracted into ethyl acetate; the extract is evaporated to dryness; the residue is dissolved in acetone, spotted on thin-layer plates and chromatographed in the solvent system toluene:acetone:glacial acetic acid (100 volumes:100 volumes:3 volumes). The radioactive zones are located; those corresponding to Thromboxane B2 (T×B2) and PGF2 α+β are transferred to liquid scintillation vials and counted. The ratio of counts for T×B2 /PGF2 α+β is calculated for each concentration of test compound and IC50 values are determined graphically as the concentration of test compound at which the ratio of T×B2 /PGF2 α+β is reduced to 50% of the control value.

[2] = system: thromboxane B2 plasma level; experiment: in vivo reduction of plasma thromboxane B2 in rats after ionophore A23187; details: oral dose as low as 0.20 mg/kg
Procedure: (§1) The inhibition of the synthesis and the reduction of plasma levels of thromboxane is determined in vivo on administration to rats in the following manner (as adapted from the procedures described by Tai et al. in Anal. Biochem. 87:343, 1978 and by Salmon in Prostaglandins 15:383, 1978):
(§2) Rats are dosed with vehicle or test drug and injected intravenously with inophore A23187 (0.5 mg/kg) two hours later. Blood is collected for analysis 2 minutes after the ionophore injection. A single aliquot of each plasma sample is assayed for thromboxane B2 and another aliquot for 6-keto-PGF1 α, the stable metabolites of thromboxane A2 and prostacyclin (PGI2) respectively, by radioimmunoassay.

[3] = system: prostacyclin (PGI2) plasma level; experiment: in vivo plasma prostacyclin (6-keto-PGF1 α) in rats after ionophore A23187; details: oral, at 0.20 mg/kg or a higher dose
Procedure: as §1, §2

Structure (SMILES): Cc1c(-n2ccnc2)n(CCCCCC(=O)O)c2ccccc12.Cl [Example 3, 1-(5-carboxypentyl)-2-(1-imidazolyl)-3-methylindole hydrochloride]
- IC50 [1]: 2.3 nM
- decrease of the plasma concentration of thromboxane B2 [2]: over 50%
- plasma level of prostacyclin [3]: increase in the plasma level of prostacyclin occurs
